This note sets out measurements from patent US12673918B2, “Small molecule RPN13 inhibitors with antitumor properties” (The Johns Hopkins University, priority 2019, dated 2026).

pIC50: −log10 of the molar value. Where two headings read alike, the source gives them in different places.

The subject of data set [1] is PEO4. The data set is described as follows: cells. The following applies: PEO4, read-out: cytotoxicity IC50 PEO4.
Protocol: (§1) Cell lines and cytotoxicity assays: All cell lines were obtained from the American Type Culture Collection (ATCC) and cultured in the specified medium supplemented with 10% fetal bovine serum, 100 IU/mL penicillin, and 100 μg/mL streptomycin at 37° C. in a humidified 5% CO2/95% air incubator. […] To assess drug cytotoxicity, cells were seeded at 2,500 cells/well (10,000 cells/well for MM lines) in 100 μL medium in 96-well plate and after 24 treated with compounds for 72 h, incubated according to the manufacturer's protocol with the Thiazolyl Blue Tetrazolium Bromide (Sigma, M2128) and A570 measured using a Benchmark Plus microplate spectrophotometer (BIO-RAD). IC50 data was analyzed by Graphpad Prism software. In the chirality studies the cells were treated with compounds for 48 h, and the cells were incubated and measured via the preceeding protocols.
In data set [2] the test system is MDA-MB-468. The data set is described as follows: cells. Conditions: Homo sapiens, MDA-MB-468, read-out: cytotoxicity IC50 MDA-MB-468.
Protocol: as §1
The test system of data set [3] is DLD1. The data set is described as follows: MTT cytotoxicity assay, DLD1. The following applies: Homo sapiens, DLD-1, read-out: cytotoxicity IC50 DLD1. (Tetrazolium assays rely on reduction of a dye to a coloured formazan, in cell work by metabolically active cells.)
Protocol: as §1
Data set [4] relates to intracellular GSH. The data set is described as follows: Total GSH assay, ES2 cells. It counts as cell-based, human. The following applies: ES2, 12 hr. The source says:
FIG. 16B illustrates ES2 cells treated with compounds for 12 hr and the total GSH level assayed.
Recent insights indicate that ER stress and oxidative stress are highly interrelated biological process which regulate a wide range of signaling pathways in cells. […] Oxidative stress is characterized by an imbalance between the production of ROS and the availability of free GSH. Generation of ROS is considered an early event in the process of apoptotic cell death (68). To counteract ROS, cells upregulate antioxidant pathways including intracellular glutathione (GSH).
Luciferase and GSH assays: Sub-confluent cultures of cells were transfected with 4Ub-FL or FL plasmid using Lipofectamine 2000 reagent (Life Technologies). Cells were seeded at 10,000 cells/well in 96-wells plate 48 hr post transfection and incubated with compounds or vehicle (DMSO) at the doses and times indicated. Luciferase activity in cell lysate was determined with a luciferase assay kit (Promega) according to the manufacturer's instructions. Bioluminescence was measured by using a Glomax Multidetection system (Promega). Glutathione was assayed using the Promega GSH assay kit (V6611).

Data set [5] deals with SUM1315. Description: cells. Conditions: read-out: cytotoxicity IC50 SUM1315.
Protocol: as §1
The subject of data set [6] is CHOP-10 mRNA. Description: RT-qPCR of CHOP-10 mRNA, ES2 cells. It counts as cell-based, human. The following applies: ES2, 0.5 μM, 12 hr. As to the method: FIG. 7A illustrates ES2 cells (250,000 cells/well) treated with compounds at 1 μM for 12 hr and mRNA was isolated. Samples were subjected to RT-qPCR to measure CHOP10 and mRNA levels normalized to GAPDH expression. Significance versus DMSO control (ns=not significant, ** <0.01, *** <0.001, **** <0.0001).
FIG. 16A illustrates ES2 cells treated with compounds (0.5 μM) for 12 hr and CHOP-10 mRNA levels, an ER stress marker, which was analyzed by qRT-PCR.
Q-PCR to measure mRNA levels: Total RNA was isolated from cells using the RNeasy mini kit (Qiagen) according to the manufacturer's instructions. Extracted RNA was normalized for concentration and reverse transcribed using an iScript cDNA synthesis kit (Bio-Rad) according to the manufacturer's instructions. CHOP10 expression levels were measured by Taqman gene expression assays with Taqman gene expression master mix (Applied Biosystems) and run with a standard thermal cycling protocol. Spliced XBP1 mRNA was assayed with SsoFast EvaGreen Supermix (Bio-rad) following the protocol for the iCycler System using as primers: F: 5′-[…]-3′ and R: 5′-[…]-3′. Calculations were done according to the Livak method and normalized to the reference gene GAPDH. Each condition was replicated three times; each sample was run in triplicate.
(Quantitative PCR measures a nucleic acid by following its amplification.)

Data set [7] deals with SUM149. The data set is described as follows: cells. The following applies: SUM149, read-out: cytotoxicity IC50 SUM149.
Protocol: as §1
The subject of data set [8] is BR5-FvB1. The data set is described as follows: MTT cytotoxicity assay, BR5-FvB1. The following applies: Mus musculus, read-out: cytotoxicity IC50 BR5-FvB1.
Protocol: as §1
The subject of data set [9] is TC1-Lu. The data set is described as follows: MTT cytotoxicity assay, TC1-Lu. The following applies: read-out: cytotoxicity IC50 TC1-Lu.
Protocol: as §1
Data set [10] has as its system PEA2. The data set is described as follows: cells. Conditions: read-out: cytotoxicity IC50 PEA2.
Protocol: as §1
Data set [11] relates to PEA1. Description: cells. The following applies: read-out: cytotoxicity IC50 PEA1.
Protocol: as §1
Data set [12] concerns PEO14. Description: cells. The following applies: read-out: cytotoxicity IC50 PEO14.
Protocol: as §1
Data set [13] relates to SKOV3-TR. Description: MTT cytotoxicity assay, SKOV3-TR.
The subject of data set [14] is HeLa. Description: MTT cytotoxicity assay, HeLa. Conditions: read-out: cytotoxicity IC50 HeLa, Tables 3A/4B/4C.
Data set [15] relates to Mouse Skin Keratinocytes. Description: MTT cytotoxicity assay, mouse skin keratinocytes. The following applies: Keratinocyte, read-out: IC50 Keratinocytes. It counts as cell-based.
Protocol: (§2) Cell lines and cytotoxicity assays: All cell lines were obtained from the American Type Culture Collection (ATCC) and cultured in the specified medium supplemented with 10% fetal bovine serum, 100 IU/mL penicillin, and 100 μg/mL streptomycin at 37° C. in a humidified 5% CO2/95% air incubator. […] To assess drug cytotoxicity, cells were seeded at 2,500 cells/well (10,000 cells/well for MM lines) in 100 μL medium in 96-well plate and after 24 treated with compounds for 72 h, incubated according to the manufacturer's protocol with the Thiazolyl Blue Tetrazolium Bromide (Sigma, M2128) and A570 measured using a Benchmark Plus microplate spectrophotometer (BIO-RAD). IC50 data was analyzed by Graphpad Prism software.
For data set [16], the system named is ID8-vegf. Description: MTT cytotoxicity assay, ID8-vegf. Conditions: read-out: cytotoxicity IC50 ID8-vegf, Tables 3A/4B/4C.
Data set [17] deals with HCT116 ARID1A^-/-. Description: MTT cytotoxicity assay, HCT116 ARID1A knockout. It counts as cell-based, human. Conditions: for pIC50: Homo sapiens, read-out: IC50 HCT116 ARID1A^-/-. The source says: Loss of ARID1A function is a common driver of ovarian and some other cancer types, and it confers vulnerability to inhibition of GSH (36).
In data set [18] the test system is PC3. Description: MTT cytotoxicity assay, PC3. The following applies: Homo sapiens.
The subject of data set [19] is HCC1806. The data set is described as follows: MTT cytotoxicity assay, HCC1806. It counts as cell-based. The following applies: Homo sapiens, read-out: IC50 HCC1806.
Protocol: as §2
Data set [20] has as its system OVCAR5. Description: MTT cytotoxicity assay, OVCAR5. It counts as cell-based. Conditions: Homo sapiens, read-out: IC50 OVCAR5.
Protocol: as §2
For data set [21], the system named is ANBL6. Description: MTT cytotoxicity assay, ANBL6. It counts as cell-based. Conditions: Homo sapiens, read-out: IC50 ANBL6.
Protocol: (§3) The cytotoxic efficacy of selected compounds was assessed against multiple myeloma (MM) cell lines, as this is a validated clinical target for the licensed proteasome inhibitors.
as §2
The subject of data set [22] is MDA-MB231. The data set is described as follows: MTT cytotoxicity assay, MDA-MB231. Conditions: Homo sapiens, read-out: IC50 MDA-MB231. It counts as cell-based.
Protocol: as §2
Data set [23] deals with ME180. Description: MTT cytotoxicity assay, ME180. It counts as cell-based. Conditions: Homo sapiens, read-out: IC50 ME180.
Protocol: as §2
Data set [24] has as its system RPMI8226-V10R. Description: MTT cytotoxicity assay, RPMI8226-V10R. It counts as cell-based. The following applies: read-out: IC50 RPMI8226-V10R.
Protocol: as §3, §2
Where [25] appears, read: read-out: cytotoxicity IC50 SKOV3-TR, Tables 3A/4B/4C, MTT assay.
The mark [26] stands for this setting: Table 3, MTT, 48 hr, normal Mouse Skin.
[27] abbreviates: HCT-116, Table 3, MTT, 48 hr, Colon.
Where [28] appears, read: PC-3, read-out: cytotoxicity IC50 PC3.

Consider `C[C@H]1/C(=C\c2ccc([N+](=O)[O-])cc2)C(=O)/C(=C/c2ccc([N+](=O)[O-])cc2)CN1C(=O)[C@@H](N)Cc1ccccc1`, for which the pIC50 is 7.39 in data set [1]; 7.12 in [2]; 6.79 in [3]; 6.59 in [5]; 7.70 in data set [7]; 6.90 in [8]. Besides, the pIC50 is 6.94 in data set [9]; 7.19 in data set [10]; 7.15 in [11]; 7.04 in data set [12]; 7.22 in [13] (setting [25]). Also, the “intracellular GSH concentrations” value in [4] was “reduced intracellular GSH concentrations”. Further, the CHOP10 transcript levels result in data set [6] is “significantly increased CHOP10 transcript levels”.

As to `CC(C)C[C@H](NC(=O)[C@H](Cc1ccccc1)NC(=O)c1cnccn1)B(O)O` [Bortezomib, bortezomib, reference compound], the pIC50 in [1] was 7.51; in data set [3], 8.32; in data set [14], 8.52; in data set [7] it was 7.52; in data set [8] it was over 7.70; in data set [9], 8.35. Further, the pIC50 in data set [10] is 7.52; in data set [15] (setting [26]), under 7.00; in data set [11], 7.52; in data set [12], 7.52; in data set [16], 8.82; in data set [17] (setting [27]) it was 8.55. Also, the “intracellular GSH concentrations” value in [4] is recorded as “reduced intracellular GSH concentrations”. For the same compound, the CHOP10 transcript levels entry in data set [6] is reported as “significantly increased CHOP10 transcript levels”.

As for `N[C@@H](Cc1ccccc1)C(=O)N1C/C(=C\c2ccc([N+](=O)[O-])cc2)C(=O)/C(=C/c2ccc([N+](=O)[O-])cc2)C1` [RA183, reference compound], the pIC50 was 6.60 in [2]; 6.95 in data set [14]; 6.88 in data set [18] (PC-3, 48 h, read-out: IC50 PC3); 6.88 in [18] (setting [28]); 7.36 in data set [19] (HCC1806, 48 h); 7.25 in data set [20] (OVCAR-5, 48 h). The pIC50 in data set [15] (Mus musculus, 48 h) is under 6.00; in data set [21] (ANBL-6, 48 h), 7.24; in data set [22] (MDA-MB-231, 48 h) it was 6.91; in data set [13] (read-out: IC50 SKOV3-TR, Table 3, MTT, 48 hr, Ovarian, paclitaxel resistant), 7.11; in data set [13] (setting [25]), 7.11; in data set [23] (ME-180, 48 h), 6.53. Moreover, the pIC50 in [16] was 6.70; in data set [24] (48 h), 6.86; in data set [17] (HCT-116, 48 h), 6.81.

Take `N[C@@H](Cc1ccccc1)C(=O)N1C/C(=C\c2ccc(Cl)c(Cl)c2)C(=O)/C(=C/c2ccc(Cl)c(Cl)c2)C1` [RA190, reference compound]: the pIC50 is 6.77 in data set [1]; 6.52 in data set [2]; 7.07 in [14]; 6.79 in data set [18] (setting [28]); 5.86 in data set [5]; 7.28 in [19] (HCC1806, Table 3, MTT, 48 hr, Triple Negative Breast). For the same compound, the pIC50 is 6.63 in data set [7]; 6.60 in data set [8]; 7.19 in [20] (OVCAR-5, Table 3, MTT, 48 hr, Ovarian); 6.40 in [10]; under 6.00 in [15] (setting [26]); 7.17 in data set [21] (ANBL-6, Table 3, MTT, 48 hr, Multiple Myeloma). Also, the pIC50 in data set [11] was 6.41; in data set [22] (MDA-MB-231, Table 3, MTT, 48 hr, Triple Negative Breast) it was 6.87; in data set [12] it was 6.43; in [13] (setting [25]), 6.96; in data set [23] (ME-180, Table 3, MTT, 48 hr, Cervical (HPV +ve)), 6.74; in data set [16], 6.68. Further, the pIC50 in [24] (Table 3, MTT, 48 hr, Multiple Myeloma, bortezomib resistant) is 7.33; in data set [17] (setting [27]), 6.79.

For `O=C(CCl)N[C@@H](Cc1ccccc1)C(=O)N1C/C(=C\c2ccc([N+](=O)[O-])cc2)C(=O)/C(=C/c2ccc([N+](=O)[O-])cc2)C1` [RA375], the pIC50 is 7.62 in data set [3]; 7.57 in data set [18] (PC-3, 48 h, read-out: IC50 PC3); 7.72 in data set [5]; 7.77 in data set [19] (HCC1806, 48 h); 7.92 in data set [20] (OVCAR-5, 48 h); 7.22 in [10]. The pIC50 was under 6.00 in [15] (Mus musculus, 48 h); 7.92 in data set [21] (ANBL-6, 48 h); 7.66 in [22] (MDA-MB-231, 48 h); 7.66 in [13] (setting [25]); 7.70 in [23] (ME-180, 48 h); 8.22 in data set [24] (48 h). The pIC50 in data set [17] (HCT-116, 48 h) is 7.70. Besides, the “fold less sensitive: parental HCT116 vs isogenic ARID1A knockout” value in data set [17] came to 4 fold.

`CC1/C(=C\c2ccc([N+](=O)[O-])cc2)C(=O)/C(=C/c2ccc([N+](=O)[O-])cc2)CN1C(=O)[C@H](Cc1ccccc1)NC(=O)CCl` (stereo partly shown) [RA414]: the pIC50 in data set [1] is 7.52; in data set [2], over 7.70; in [3] it was over 7.40; in data set [14], 8.52; in [18] (setting [28]) it was 7.92; in [5], 7.70. The pIC50 in data set [7] was over 7.70; in data set [9], 7.40; in data set [10] it was 7.52; in data set [11], 7.52; in data set [12] it was 7.52; in data set [13] (setting [25]), over 7.70. The pIC50 in data set [16] is over 7.40. Also, the “intracellular GSH concentrations” value in [4] is on record as “reduced intracellular GSH concentrations”. In addition, the CHOP10 transcript levels entry in data set [6] is recorded as “significantly increased CHOP10 transcript levels”.
